In paper PMC9820316, “Novel Arylpiperazine Derivatives of Salicylamide with α1-Adrenolytic Properties Showed Antiarrhythmic and Hypotensive Properties in Rats” (International Journal of Molecular Sciences, 2022):
Marks after values point to notes of the source that are not given here.

Tests used:
[1] = tested on: adrenaline-induced arrhythmia model in rats; test: Prophylactic antiarrhythmic activity in adrenaline-induced arrhythmia; type: in vivo, rat; details: for Blocks / Bradycardia / Extrasystoles / Mortality: number of animals with event; for ED50: prophylactic, iv 15 min before adrenaline 20 μg/kg, confidence limits in brackets (Litchfield and Wilcoxon)
[2] = tested on: pressor response to methoxamine in rats; test: Influence on blood vasopressor response to methoxamine in rats; type: in vivo, rat; details: methoxamine 150 μg/kg before and 5 min after compound
Procedure, shortened: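 Anaesthetised (thiopental 75 mg/kg ip) normotensive Wistar rats, carotid artery cannulated. Pressor response to methoxamine (150 µg/kg, iv) recorded before and 5 min after test compound, given at its lowest hypotensive dose, after 15-min stabilisation.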

[3] = biological target: α2-adrenergic receptors; test: α2-adrenoceptor radioligand binding assay ([3H]-clonidine, rat cortex); details: rat cortex tissue, mean ± SEM, n.a. = did not bind at 10^−5 M
Procedure, shortened: (§1)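 Rat cerebral cortex membranes in 50 mM Tris-HCl pH 7.6, with 7–8 compound concentrations in duplicate. Nonspecific binding defined by 10 μM phentolamine for [3H]-prazosin (α1) or 10 μM clonidine for [3H]-clonidine (α2). Filtration and scintillation counting; Ki calculated.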

[4] = tested on: normal ECG in rats; test: Effect on a normal electrocardiogram in rats; type: in vivo, rat; details: for HR—heart rate / PQ interval / QRS complex / QTc (Bazzett's formula): mean ± SD; for PQ interval / QRS complex / QTc (Bazzett's formula): in ms (unit assumed)
Description: The procedure was performed to exclude the negative effects of the tested compounds on the normal ECG, according to the method described earlier. […] Firstly, animals were anesthetized with thiopental (75 mg/kg ip). […] The influence on PQ, QTc interval, QRS complex, and heart rate was evaluated. The Bazzett’s formula: QTc = QT/√RR was used to calculate QTc. All the studied compounds were administered at a dose of 5 mg/kg.

[5] = tested on: normotensive rats; test: Influence on blood pressure in the normotensive rats; type: in vivo, rat; details: for DBP—diastolic blood pressure / SBP—systolic blood pressure: mean ± SD
Procedure, shortened: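 Anaesthetised (thiopental 75 mg/kg ip) normotensive Wistar rats with right carotid artery cannulated for direct pressure recording. Compounds given iv after 15 min stabilisation. Systolic and diastolic blood pressure were monitored.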

[6] = tested on: adrenaline-induced arrhythmia model in rats; test: Therapeutic antiarrhythmic activity in adrenaline-induced arrhythmia; details: 5 mg/kg iv immediately after adrenaline 20 µg/kg; number of animals with event
[7] = biological target: α1-adrenergic receptors; test: α1-adrenoceptor radioligand binding assay ([3H]-prazosin, rat cortex); details: rat cortex tissue, mean ± SEM
Procedure, shortened: as §1

[8] = tested on: aconitine-induced arrhythmia model in rats; test: Prophylactic antiarrhythmic activity in aconitine-induced arrhythmia; type: in vivo, rat; details: 5 mg/kg iv 15 min before aconitine 20 μg/kg; number of animals with event
[9] = 0.25 mg/kg iv 15 min before adrenaline 20 μg/kg
[10] = 0.5 mg/kg iv 15 min before adrenaline 20 μg/kg
[11] = 1 mg/kg iv 15 min before adrenaline 20 μg/kg
[12] = 5 mg/kg iv, 0 min (prior to administration)
[13] = 2.5 mg/kg iv, 0 min (before administration)
[14] = 5.0 mg/kg iv, 0 min (before administration)
[15] = 1.0 mg/kg iv, 0 min (before administration)

## COc1ccccc1N1CCN(Cc2ccc(COc3ccccc3C(N)=O)cc2)CC1.Cl [JJGW12, 2-[(4-{[4-(2-metoxyphenyl)piperazin-1-ylo]methyl}phenyl)metoxy}benzamide hydrochloride]
[1]; [9]
  Blocks: 6/6
  Bradycardia: 5/6
  Extrasystoles: 6/6
  Mortality: 3/6
[1]; [10]
  Blocks: 4/5
  Bradycardia: 3/5
  Extrasystoles: 4/5
  Mortality: 0/5
[1]; [11]
  Blocks: 3/5
  Bradycardia: 1/5
  Extrasystoles: 3/5
  Mortality: 0/5
[1]
  ED50: 0.44 (0.10–1.98) mg/kg
[2]; 5 mg/kg iv
  attenuation of the methoxamine pressor response: 97%
[3]
  Adrenergic Receptors—pKi α2: 6.11 ± 0.01
[4]; 5 mg/kg iv
  effect on the heart rate during the ECG recording: did not affect the heart rate
[4]; [12]
  HR—heart rate: 254.6 ± 41.2
  PQ interval: 44.1 ± 6.2
  QRS complex: 41.9 ± 2.1
  QTc (Bazzett's formula): 190.8 ± 15.2
[4]; 5 mg/kg iv, 5 min
  HR—heart rate: 256.8 ± 47.1
  PQ interval: 43.6 ± 1.2
  QRS complex: 44.5 ± 3.6
  QTc (Bazzett's formula): 194.3 ± 16.8
[4]; 5 mg/kg iv, 10 min
  HR—heart rate: 255.2 ± 53.6
  PQ interval: 45.9 ± 2.4
  QRS complex: 44.2 ± 2.3
  QTc (Bazzett's formula): 190.3 ± 25.9
[4]; 5 mg/kg iv, 15 min
  HR—heart rate: 250.2 ± 51.5
  PQ interval: 45.5 ± 3.1
  QRS complex: 45.2 ± 5.9
  QTc (Bazzett's formula): 195.8 ± 25.5
[5]; [13]
  DBP—diastolic blood pressure: 95.0 ± 16.0 mmHg
  SBP—systolic blood pressure: 122.2 ± 15.6 mmHg
[5]; 2.5 mg/kg iv, 5 min
  DBP—diastolic blood pressure: 94.5 ± 16.5 mmHg
  SBP—systolic blood pressure: 120.7 ± 13.8 mmHg
[5]; 2.5 mg/kg iv, 10 min
  DBP—diastolic blood pressure: 87.5 ± 23.0 mmHg
  SBP—systolic blood pressure: 114.5 ± 10.6 mmHg
[5]; 2.5 mg/kg iv, 20 min
  DBP—diastolic blood pressure: 83.5 ± 22.4 mmHg
  SBP—systolic blood pressure: 109.7 ± 9.3 mmHg
[5]; 2.5 mg/kg iv, 30 min
  DBP—diastolic blood pressure: 84.0 ± 21.4 mmHg
  SBP—systolic blood pressure: 106.5 ± 13.1 mmHg
[5]; 2.5 mg/kg iv, 40 min
  DBP—diastolic blood pressure: 87.8 ± 16.7 mmHg
  SBP—systolic blood pressure: 108.8 ± 11.8 mmHg
[5]; 2.5 mg/kg iv, 50 min
  DBP—diastolic blood pressure: 89.3 ± 13.4 mmHg
  SBP—systolic blood pressure: 110.0 ± 7.5 mmHg
[5]; 2.5 mg/kg iv, 60 min
  DBP—diastolic blood pressure: 89.2 ± 13.9 mmHg
  SBP—systolic blood pressure: 110.5 ± 8.1 mmHg
[5]; [14]
  DBP—diastolic blood pressure: 95.7 ± 6.0 mmHg
  SBP—systolic blood pressure: 122.5 ± 11.9 mmHg
[5]; 5 mg/kg iv, 50th min since administration
  decrease of the systolic blood pressure: 13%
[5]; 5.0 mg/kg iv, 5 min
  DBP—diastolic blood pressure: 87.7 ± 7.0 mmHg
  SBP—systolic blood pressure: 120.7 ± 9.8 mmHg
[5]; 5.0 mg/kg iv, 10 min
  DBP—diastolic blood pressure: 89.3 ± 8.1 mmHg
  SBP—systolic blood pressure: 114.5 ± 9.1 mmHg
[5]; 5.0 mg/kg iv, 20 min
  DBP—diastolic blood pressure: 88.5 ± 9.0 mmHg
  SBP—systolic blood pressure: 112.8 ± 10.0 mmHg
[5]; 5.0 mg/kg iv, 30 min
  DBP—diastolic blood pressure: 87.8 ± 8.8 mmHg
  SBP—systolic blood pressure: 111.5 ± 10.4 mmHg
[5]; 5.0 mg/kg iv, 40 min
  DBP—diastolic blood pressure: 87.8 ± 8.7 mmHg
  SBP—systolic blood pressure: 113.0 ± 11.9 mmHg
[5]; 5.0 mg/kg iv, 50 min
  DBP—diastolic blood pressure: 85.8 ± 8.1 mmHg
  SBP—systolic blood pressure: 107.0 ± 12.7 ^a mmHg
[5]; 5.0 mg/kg iv, 60 min
  DBP—diastolic blood pressure: 86.7 ± 10.7 mmHg
  SBP—systolic blood pressure: 109.8 ± 12.2 mmHg
[5]; 5 mg/kg iv, normotensive rats
  influence on the diastolic blood pressure: did not influence the diastolic blood pressure
[6]
  Blocks: 6/6
  Bradycardia: 6/6
  Mortality: 6/6
[7]
  Adrenergic Receptors—pKi α1: 7.41 ± 0.01
[8]
  Blocks: 5/6
  Bradycardia: 6/6
  Extrasystoles: 6/6
  Fibrillations: 5/6
  Mortality: 6/6

## Cl.NC(=O)c1ccccc1OCCCCCN1CCN(c2cccc(Cl)c2)CC1 [JJGW02, 2-{5-[4-(3-chlorophenyl)piperazin-1-ylo]pentoxy}benzamide hydrochloride]
[1]; [9]
  Blocks: 5/6
  Bradycardia: 5/6
  Extrasystoles: 5/6
  Mortality: 3/6
[1]; [10]
  Blocks: 6/6
  Bradycardia: 5/6
  Extrasystoles: 5/6
  Mortality: 0/6
[1]; [11]
  Blocks: 5/6
  Bradycardia: 4/6
  Extrasystoles: 5/6
  Mortality: 1/6
[1]
  ED50: 0.45 (0.11–1.77) mg/kg
[2]; 2.5 mg/kg iv
  attenuation of the methoxamine pressor response: 100%
[3]
  Adrenergic Receptors—pKi α2: 6.20 ± 0.02
[4]; 5 mg/kg iv vs ED50
  dose affecting the heart rate relative to the ED50 value in the adrenaline-induced arrhythmia model: 11 fold
[4]; [12]
  HR—heart rate: 311.1 ± 24.4
  PQ interval: 42.6 ± 2.0
  QRS complex: 36.0 ± 1.1
  QTc (Bazzett's formula): 183.3 ± 7.1
[4]; 5 mg/kg iv, 5th min after the injection
  decrease of the heart rate: 10%
[4]; 5 mg/kg iv, 10th min after the injection
  decrease of the heart rate: 15%
[4]; 5 mg/kg iv, 15th min after the injection
  decrease of the heart rate: 16%
[4]; 5 mg/kg iv, 5 min
  HR—heart rate: 278.7 ± 37.0
  PQ interval: 41.7 ± 1.8
  QRS complex: 35.2 ± 1.2
  QTc (Bazzett's formula): 175.4 ± 14.0
[4]; 5 mg/kg iv, 10 min
  HR—heart rate: 265.0 ± 30.1
  PQ interval: 42.2 ± 1.6
  QRS complex: 36.1 ± 1.8
  QTc (Bazzett's formula): 173.2 ± 15.7
[4]; 5 mg/kg iv, 15 min
  HR—heart rate: 262.0 ± 37.3
  PQ interval: 44.8 ± 5.9
  QRS complex: 35.2 ± 0.7
  QTc (Bazzett's formula): 175.1 ± 16.0
[5]; [15]
  DBP—diastolic blood pressure: 87.7 ± 14.9 mmHg
  SBP—systolic blood pressure: 118.0 ± 10.5 mmHg
[5]; 1.0 mg/kg iv, 5 min
  DBP—diastolic blood pressure: 82.7 ± 16.0 mmHg
  SBP—systolic blood pressure: 113.7 ± 8.7 mmHg
[5]; 1.0 mg/kg iv, 10 min
  DBP—diastolic blood pressure: 83.3 ± 10.3 mmHg
  SBP—systolic blood pressure: 111.2 ± 6.4 mmHg
[5]; 1.0 mg/kg iv, 20 min
  DBP—diastolic blood pressure: 80.0 ± 14.1 mmHg
  SBP—systolic blood pressure: 109.7 ± 9.1 mmHg
[5]; 1.0 mg/kg iv, 30 min
  DBP—diastolic blood pressure: 73.7 ± 10.6 mmHg
  SBP—systolic blood pressure: 105.7 ± 7.5 mmHg
[5]; 1.0 mg/kg iv, 40 min
  DBP—diastolic blood pressure: 75.0 ± 13.2 mmHg
  SBP—systolic blood pressure: 107.7 ± 11.5 mmHg
[5]; 1.0 mg/kg iv, 50 min
  DBP—diastolic blood pressure: 73.7 ± 13.9 mmHg
  SBP—systolic blood pressure: 108.7 ± 12.9 mmHg
[5]; 1.0 mg/kg iv, 60 min
  DBP—diastolic blood pressure: 76.7 ± 19.2 mmHg
  SBP—systolic blood pressure: 111.0 ± 18.0 mmHg
[5]; [13]
  DBP—diastolic blood pressure: 84.8 ± 12.1 mmHg
  SBP—systolic blood pressure: 114.3 ± 15.7 mmHg
[5]; 2.5 mg/kg iv, 5 min
  DBP—diastolic blood pressure: 72.0 ± 9.4 ^c mmHg
  SBP—systolic blood pressure: 103.2 ± 13.0 ^c mmHg
[5]; 2.5 mg/kg iv, 10 min
  DBP—diastolic blood pressure: 72.8 ± 11.6 ^b mmHg
  SBP—systolic blood pressure: 104.2 ± 13.2 ^b mmHg
[5]; 2.5 mg/kg iv, 20 min
  DBP—diastolic blood pressure: 73.0 ± 9.6 ^b mmHg
  SBP—systolic blood pressure: 102.8 ± 13.4 ^b mmHg
[5]; 2.5 mg/kg iv, 30 min
  DBP—diastolic blood pressure: 72.3 ± 8.1 ^a mmHg
  SBP—systolic blood pressure: 103.7 ± 10.8 ^a mmHg
[5]; 2.5 mg/kg iv, 40 min
  DBP—diastolic blood pressure: 73.8 ± 9.4 ^a mmHg
  SBP—systolic blood pressure: 106.5 ± 10.6 mmHg
[5]; 2.5 mg/kg iv, 50 min
  DBP—diastolic blood pressure: 73.7 ± 8.7 mmHg
  SBP—systolic blood pressure: 103.2 ± 9.4 ^b mmHg
[5]; 2.5 mg/kg iv, 60 min
  DBP—diastolic blood pressure: 73.7 ± 7.9 ^a mmHg
  SBP—systolic blood pressure: 105.2 ± 9.7 ^a mmHg
[5]; 2.5 mg/kg iv, between the 5th and 30th min and between the 50th and 60th min
  decrease of the systolic blood pressure: 8–10%
[5]; 2.5 mg/kg iv, between the 5th to 40th min and in the 60th min
  decrease of the diastolic blood pressure: 13–15%
[6]
  Blocks: 1/6
  Bradycardia: 2/6
  Mortality: 1/6
[7]
  Adrenergic Receptors—pKi α1: 8.33 ± 0.02
[8]
  Blocks: 6/6
  Bradycardia: 6/6
  Extrasystoles: 6/6
  Fibrillations: 6/6
  Mortality: 6/6
